According to patent US20240240189A1, “CANCER TREATMENT BY TARGETING PROTEINS OR INTERACTIONS OF EPHRINB-RGS3-KIF20A-SEPT7 AXIS” (CITY OF HOPE, priority 2021, published 2024):
Entries after “also recorded” stand apart in the source; their conditions may differ.

Tests used:
[1] = system: Daoy cells; test: Intracranial Daoy tumor transplantation in NSG mice, bioluminescence imaging and survival; format: in vivo, mouse; conditions: Daoy Clone #2 in cerebellum of NSG mice
Source text: Expression of the two factors was highly correlated. […] Tumor growths were monitored by bioluminescence imaging. Doxycycline treatment started at four weeks after initial cell implantation (indicated with a red font and line). The treatment group of mice was first given doxycycline by gavage for two consecutive days and was then fed with doxycycline-containing food for the entire duration of the experiment.
Intracranial tumor transplantation and Bioluminescence imaging: NSG mice (8-10 weeks old) were anesthetized with isoflurane and oxygen and placed under microscope. […] The transplanted mice were then monitored weekly with luciferase-based bioluminescence imaging for tumor growth. […] Tumor growths in two mice groups were monitored weekly by bioluminescence imaging. Survivals of mice after cell transplantation were recorded and analyzed.
To examine the function of KIF20A in tumor formation by Daoy cells, 10^5 Clone #2 cells were injected into the cerebellum of each recipient NSG mouse using a method previously described^22. Growth of tumor cells was then monitored by bioluminescence imaging. […] The mice were then kept on doxycycline-containing food continuously and were monitored for tumor growth by bioluminescence imaging.

[2] = system: Daoy human MB cells; test: Growth assay of Daoy cells; format: cell-based; conditions: three Daoy clones, inducible expression of shKIF20A726 (+Dox)
Experimental: Generation of Daoy cell lines with stably integrated Tet-on inducible shRNA expression system: Daoy cells were infected with lentivirus of Tet-on inducible human KIF20A shRNA-726 and GFP-Luciferase prepared from Tet-pLKO-hushKIF20A726 plasmid and Hiv7CMVGFP-IRES-Luciferase plasmid, respectively. The transduced Daoy cells were selected for stable single clones with Puromycin (1 μg/ml, Sigma-Aldrich) and GFP fluorescence signal in DMEM (Invitrogen) with 10% fetal bovine serum. Single clones were picked up by glass cloning cylinders (Sigma-Aldrich) in 10 cm plate.
Growth Assay of tumor cells: Mouse MB cell lines, or Daoy clones stably integrated with Tet-on inducible human KIF20A shRNA-726, or Wild Type Daoy cells, were seeded into multiple wells of 24 well plates (2×10^4 or 1×10^4 cells per well). Cells in quadruplicate were then dissociated and counted using a hemocytometer at consecutive days after initial plating.

Substance: 5′-GAGGAGTGTCTACATCGAA-TTCAAGAGA-TTCGATGTAGACACTCCTC-3′ (GAGGAGTGTCTACATCGAATTCAAGAGATTCGATGTAGACACTCCTC; hairpin, further chemistry not given here) [shKIF20A726, shRNA targeting human KIF20A transcript]
- brain tumor growth (bioluminescence imaging) ([1]; doxycycline from four weeks after implantation vs untreated): significantly slower growth of brain tumors; also recorded: inhibited tumor growth
- survival (Kaplan-Meier) ([1]; doxycycline treatment vs untreated): better overall survival
- cell proliferation [2]: significantly inhibit the proliferation of all three clones; also recorded: inhibit cell proliferation
